Values joined by “and” are separate entries in the source; they are usually repeats but may differ in a detail not shown here. Equal values may be shown once.
Legend:
Assay in all cases: KINOMEscan competition binding
Conditions in all cases: compound 10.0 µM
[1] = target: ACVR2A (human) (UniProt P27037)
[2] = target: BRSK2 (human) (UniProt Q8IWQ3)
[3] = target: CDC42BPA (human) (UniProt Q5VT25)
[4] = target: CDK15 (human) (UniProt Q96Q40)
[5] = target: CDKL2 (human) (UniProt Q92772)
[6] = target: CSNK1E (human) (UniProt P49674)
[7] = target: EPHA4 (human) (UniProt P54764)
[8] = target: FGFR1 (human) (UniProt P11362)
[9] = target: FGFR4 (human) (UniProt P22455)
[10] = system: FLT3 (human), P36888 [D835H]
[11] = target: FYN (human) (UniProt P06241)
[12] = target: GRK4 (human) (UniProt P32298)
[13] = target: HIPK3 (human) (UniProt Q9H422)
[14] = target: ITK (human) (UniProt Q08881)
[15] = target: LYN (human) (UniProt P07948)
[16] = target: MAP2K6 (human) (UniProt P52564)
[17] = target: MAP4K3 (human) (UniProt Q8IVH8)
[18] = target: MAP4K4 (human) (UniProt O95819)
[19] = target: MAPK8 (human) (UniProt P45983)
[20] = target: MARK4 (human) (UniProt Q96L34)
[21] = target: MINK1 (human) (UniProt Q8N4C8)
[22] = target: MYO3B (human) (UniProt Q8WXR4)
[23] = target: NEK5 (human) (UniProt Q6P3R8)
[24] = target: PAK1 (human) (UniProt Q13153)
[25] = target: PKN1 (human) (UniProt Q16512)
[26] = target: PLK4 (human) (UniProt O00444)
[27] = target: PRKACA (human) (UniProt P17612)
[28] = target: PRKACB (human) (UniProt P22694)
[29] = target: PTK2 (human) (UniProt Q05397)
[30] = target: RAF1 (human) (UniProt P04049)
[31] = system: RET (human), P07949 [V804M]
[32] = target: RIOK3 (human) (UniProt O14730)
[33] = target: ROS1 (human) (UniProt P08922)
[34] = target: SGK3 (human) (UniProt Q96BR1)
[35] = target: SLK (human) (UniProt Q9H2G2)
[36] = target: SYK (human) (UniProt P43405)
[37] = target: TESK1 (human) (UniProt Q15569)
[38] = target: TNIK (human) (UniProt Q9UKE5)
[39] = target: TNK1 (human) (UniProt Q13470)
[40] = target: TXK (human) (UniProt P42681)
[41] = target: ULK1 (human) (UniProt O75385)

MAP4K4 (human), sequence (O95819 whole entry, looked up): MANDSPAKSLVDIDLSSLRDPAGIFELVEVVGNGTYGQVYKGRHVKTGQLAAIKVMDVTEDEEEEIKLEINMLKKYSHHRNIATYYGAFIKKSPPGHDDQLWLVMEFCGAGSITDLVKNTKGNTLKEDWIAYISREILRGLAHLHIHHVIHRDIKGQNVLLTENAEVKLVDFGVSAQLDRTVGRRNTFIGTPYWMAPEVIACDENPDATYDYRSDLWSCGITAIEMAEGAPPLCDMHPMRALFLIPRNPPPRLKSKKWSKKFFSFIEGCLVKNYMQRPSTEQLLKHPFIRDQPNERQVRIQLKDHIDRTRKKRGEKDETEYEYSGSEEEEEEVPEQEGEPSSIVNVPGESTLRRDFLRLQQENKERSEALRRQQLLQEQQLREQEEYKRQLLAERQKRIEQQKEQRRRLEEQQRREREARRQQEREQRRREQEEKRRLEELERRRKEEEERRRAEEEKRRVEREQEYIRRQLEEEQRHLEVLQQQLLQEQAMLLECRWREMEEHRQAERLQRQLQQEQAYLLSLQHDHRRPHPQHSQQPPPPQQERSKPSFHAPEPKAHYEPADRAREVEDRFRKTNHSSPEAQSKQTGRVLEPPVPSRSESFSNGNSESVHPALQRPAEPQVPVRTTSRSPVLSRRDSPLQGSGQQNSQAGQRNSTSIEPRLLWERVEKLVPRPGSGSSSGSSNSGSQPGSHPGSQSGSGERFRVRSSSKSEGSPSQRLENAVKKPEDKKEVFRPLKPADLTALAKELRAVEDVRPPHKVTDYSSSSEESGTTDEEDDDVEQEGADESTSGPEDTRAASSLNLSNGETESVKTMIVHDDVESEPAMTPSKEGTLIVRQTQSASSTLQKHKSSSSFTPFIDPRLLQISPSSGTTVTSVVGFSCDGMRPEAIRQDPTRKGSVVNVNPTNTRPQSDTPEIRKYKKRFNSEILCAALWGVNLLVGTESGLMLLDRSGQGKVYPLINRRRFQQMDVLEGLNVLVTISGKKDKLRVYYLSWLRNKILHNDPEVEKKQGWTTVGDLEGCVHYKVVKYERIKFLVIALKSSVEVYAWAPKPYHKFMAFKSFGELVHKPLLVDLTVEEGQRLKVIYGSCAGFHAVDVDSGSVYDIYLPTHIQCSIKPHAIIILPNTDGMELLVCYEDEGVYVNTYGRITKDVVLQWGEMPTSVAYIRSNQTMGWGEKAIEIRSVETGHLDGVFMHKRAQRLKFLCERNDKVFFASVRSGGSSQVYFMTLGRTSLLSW
SGK3 (human), sequence (Q96BR1 whole entry, looked up): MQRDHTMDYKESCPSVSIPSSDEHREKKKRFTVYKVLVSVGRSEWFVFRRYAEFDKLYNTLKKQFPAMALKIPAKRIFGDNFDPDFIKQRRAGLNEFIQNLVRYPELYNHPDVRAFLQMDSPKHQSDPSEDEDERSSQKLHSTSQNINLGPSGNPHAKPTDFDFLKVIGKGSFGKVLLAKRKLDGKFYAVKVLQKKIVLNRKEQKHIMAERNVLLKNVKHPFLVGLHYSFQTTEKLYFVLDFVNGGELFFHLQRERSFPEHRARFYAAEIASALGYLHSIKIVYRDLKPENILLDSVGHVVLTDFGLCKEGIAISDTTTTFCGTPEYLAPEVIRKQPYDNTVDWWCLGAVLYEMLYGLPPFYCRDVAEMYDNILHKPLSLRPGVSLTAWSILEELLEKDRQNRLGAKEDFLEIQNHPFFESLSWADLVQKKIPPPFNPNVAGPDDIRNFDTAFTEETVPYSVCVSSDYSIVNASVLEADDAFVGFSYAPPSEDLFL
CDKL2 (human), sequence (Q92772 whole entry, looked up): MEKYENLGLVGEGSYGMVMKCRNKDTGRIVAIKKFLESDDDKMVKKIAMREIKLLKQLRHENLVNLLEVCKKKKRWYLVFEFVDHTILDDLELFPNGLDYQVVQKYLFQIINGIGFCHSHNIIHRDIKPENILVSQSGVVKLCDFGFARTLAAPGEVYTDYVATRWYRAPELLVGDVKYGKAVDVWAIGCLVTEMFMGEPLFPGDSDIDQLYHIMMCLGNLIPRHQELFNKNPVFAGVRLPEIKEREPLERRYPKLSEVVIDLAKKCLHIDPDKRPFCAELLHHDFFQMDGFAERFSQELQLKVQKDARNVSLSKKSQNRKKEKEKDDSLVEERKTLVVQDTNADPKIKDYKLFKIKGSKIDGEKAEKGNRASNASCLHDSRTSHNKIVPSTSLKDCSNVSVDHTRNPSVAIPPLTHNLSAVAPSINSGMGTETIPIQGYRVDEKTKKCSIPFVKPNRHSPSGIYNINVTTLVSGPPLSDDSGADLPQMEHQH
TNK1 (human), sequence (Q13470 whole entry, looked up): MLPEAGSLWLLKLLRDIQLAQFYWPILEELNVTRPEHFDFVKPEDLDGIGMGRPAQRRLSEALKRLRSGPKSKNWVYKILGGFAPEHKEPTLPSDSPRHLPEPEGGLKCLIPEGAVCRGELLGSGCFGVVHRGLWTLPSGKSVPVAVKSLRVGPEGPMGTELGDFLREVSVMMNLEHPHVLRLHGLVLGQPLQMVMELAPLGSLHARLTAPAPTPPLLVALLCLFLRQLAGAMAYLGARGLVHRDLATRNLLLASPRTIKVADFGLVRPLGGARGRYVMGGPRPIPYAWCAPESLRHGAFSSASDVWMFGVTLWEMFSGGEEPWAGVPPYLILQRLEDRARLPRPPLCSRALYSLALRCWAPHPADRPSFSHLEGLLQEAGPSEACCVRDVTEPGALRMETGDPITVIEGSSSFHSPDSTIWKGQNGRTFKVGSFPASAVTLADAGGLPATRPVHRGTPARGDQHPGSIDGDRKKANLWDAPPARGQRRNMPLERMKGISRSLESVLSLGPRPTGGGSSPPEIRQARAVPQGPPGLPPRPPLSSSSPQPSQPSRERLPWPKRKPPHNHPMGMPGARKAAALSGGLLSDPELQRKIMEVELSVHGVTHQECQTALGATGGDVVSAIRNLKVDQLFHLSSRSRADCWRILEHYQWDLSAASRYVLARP
FGFR1 (human), sequence (P11362 whole entry, looked up): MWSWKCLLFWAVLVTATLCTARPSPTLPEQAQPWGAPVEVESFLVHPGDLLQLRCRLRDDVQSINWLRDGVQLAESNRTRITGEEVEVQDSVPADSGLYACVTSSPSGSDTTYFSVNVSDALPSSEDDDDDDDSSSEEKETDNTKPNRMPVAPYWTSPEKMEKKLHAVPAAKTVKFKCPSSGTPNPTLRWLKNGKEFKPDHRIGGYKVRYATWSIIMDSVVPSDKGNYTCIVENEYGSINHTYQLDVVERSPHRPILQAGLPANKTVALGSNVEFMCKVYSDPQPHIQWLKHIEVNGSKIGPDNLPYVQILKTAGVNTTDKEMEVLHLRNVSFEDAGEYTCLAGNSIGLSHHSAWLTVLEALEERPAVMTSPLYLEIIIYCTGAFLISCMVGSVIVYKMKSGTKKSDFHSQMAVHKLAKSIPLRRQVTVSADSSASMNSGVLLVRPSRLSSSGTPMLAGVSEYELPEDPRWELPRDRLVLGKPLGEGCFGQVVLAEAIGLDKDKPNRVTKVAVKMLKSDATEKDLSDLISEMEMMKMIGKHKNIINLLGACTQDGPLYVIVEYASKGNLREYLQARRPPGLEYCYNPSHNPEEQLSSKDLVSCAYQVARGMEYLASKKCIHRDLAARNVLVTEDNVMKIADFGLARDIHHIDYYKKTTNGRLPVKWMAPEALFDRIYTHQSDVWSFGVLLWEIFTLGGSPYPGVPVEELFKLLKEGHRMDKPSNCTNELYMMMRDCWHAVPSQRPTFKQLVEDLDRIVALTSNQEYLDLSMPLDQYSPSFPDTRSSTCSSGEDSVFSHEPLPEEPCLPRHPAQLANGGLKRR
MAPK8 (human), sequence (P45983 whole entry, looked up): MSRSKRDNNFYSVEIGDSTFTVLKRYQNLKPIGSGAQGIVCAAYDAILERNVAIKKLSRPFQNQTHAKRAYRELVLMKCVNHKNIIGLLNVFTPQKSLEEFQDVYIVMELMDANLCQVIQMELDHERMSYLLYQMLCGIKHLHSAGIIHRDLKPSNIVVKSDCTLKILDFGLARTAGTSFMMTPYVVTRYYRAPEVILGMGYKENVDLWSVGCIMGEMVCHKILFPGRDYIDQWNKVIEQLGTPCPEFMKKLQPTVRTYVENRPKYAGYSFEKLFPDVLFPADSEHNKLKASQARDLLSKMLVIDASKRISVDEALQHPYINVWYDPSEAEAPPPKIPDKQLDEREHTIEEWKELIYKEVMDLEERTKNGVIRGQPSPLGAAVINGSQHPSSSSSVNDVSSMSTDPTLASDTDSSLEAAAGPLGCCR
LYN (human), sequence (P07948 whole entry, looked up): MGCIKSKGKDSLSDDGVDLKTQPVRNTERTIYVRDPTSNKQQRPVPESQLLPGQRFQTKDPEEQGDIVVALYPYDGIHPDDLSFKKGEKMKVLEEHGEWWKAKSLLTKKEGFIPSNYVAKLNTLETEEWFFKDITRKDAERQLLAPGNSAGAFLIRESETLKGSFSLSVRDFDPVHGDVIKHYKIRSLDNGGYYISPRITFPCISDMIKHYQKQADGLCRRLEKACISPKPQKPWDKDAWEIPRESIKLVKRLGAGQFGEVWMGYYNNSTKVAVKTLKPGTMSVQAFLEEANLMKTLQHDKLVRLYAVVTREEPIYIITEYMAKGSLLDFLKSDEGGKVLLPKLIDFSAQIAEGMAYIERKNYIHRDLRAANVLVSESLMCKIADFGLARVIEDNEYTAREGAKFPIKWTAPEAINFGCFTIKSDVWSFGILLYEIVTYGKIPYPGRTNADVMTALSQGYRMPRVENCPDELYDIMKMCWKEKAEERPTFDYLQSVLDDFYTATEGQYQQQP
MAP2K6 (human), sequence (P52564 whole entry, looked up): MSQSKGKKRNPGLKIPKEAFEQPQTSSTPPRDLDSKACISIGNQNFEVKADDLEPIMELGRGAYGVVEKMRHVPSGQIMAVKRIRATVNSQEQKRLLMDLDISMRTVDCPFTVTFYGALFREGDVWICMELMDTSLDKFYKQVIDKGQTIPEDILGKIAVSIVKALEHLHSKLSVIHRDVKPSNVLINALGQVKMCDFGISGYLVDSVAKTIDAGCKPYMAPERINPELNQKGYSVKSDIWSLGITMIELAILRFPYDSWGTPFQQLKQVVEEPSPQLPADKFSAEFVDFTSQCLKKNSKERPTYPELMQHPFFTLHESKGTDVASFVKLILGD

COc1ccc(N(C(=O)Oc2c(C)cccc2C)c2ccnc(Nc3ccc(N4CCN(C)CC4)cc3)n2)c(OC)c1
kinase still bound, per cent of control [1]: 0.75%
kinase still bound, per cent of control [2]: 81%
kinase still bound, per cent of control [3]: 16%
kinase still bound, per cent of control [4]: 94%
kinase still bound, per cent of control [5]: 0.5%
kinase still bound, per cent of control [6]: 23%
kinase still bound, per cent of control [7]: 0%
kinase still bound, per cent of control [8]: 0.25%
kinase still bound, per cent of control [9]: 7.4%
kinase still bound, per cent of control [10]: 3%
kinase still bound, per cent of control [11]: 0%
kinase still bound, per cent of control [12]: 7.9%
kinase still bound, per cent of control [13]: 91%
kinase still bound, per cent of control [14]: 100%
kinase still bound, per cent of control [15]: 0%
kinase still bound, per cent of control [16]: 66%
kinase still bound, per cent of control [17]: 1.4%
kinase still bound, per cent of control [18]: 3.7%
kinase still bound, per cent of control [19]: 64%
kinase still bound, per cent of control [20]: 49%
kinase still bound, per cent of control [21]: 14%
kinase still bound, per cent of control [22]: 18%
kinase still bound, per cent of control [23]: 85%
kinase still bound, per cent of control [24]: 6.8%
kinase still bound, per cent of control [25]: 15%
kinase still bound, per cent of control [26]: 37%
kinase still bound, per cent of control [27]: 1.6%
kinase still bound, per cent of control [28]: 2.5%
kinase still bound, per cent of control [29]: 32%
kinase still bound, per cent of control [30]: 95%
kinase still bound, per cent of control [31]: 66%
kinase still bound, per cent of control [32]: 5.1%
kinase still bound, per cent of control [33]: 0.8%
kinase still bound, per cent of control [34]: 100%
kinase still bound, per cent of control [35]: 0.1%
kinase still bound, per cent of control [36]: 1.4%
kinase still bound, per cent of control [37]: 0%
kinase still bound, per cent of control [38]: 37%
kinase still bound, per cent of control [39]: 0%
kinase still bound, per cent of control [40]: 0.45%
kinase still bound, per cent of control [41]: 31%

O=C1NC(=O)/C(=C/c2ccc3nccc(-c4ccncc4)c3c2)S1
kinase still bound, per cent of control [1]: 83%
kinase still bound, per cent of control [2]: 91%
kinase still bound, per cent of control [3]: 90%
kinase still bound, per cent of control [4]: 9.6%
kinase still bound, per cent of control [5]: 64%
kinase still bound, per cent of control [6]: 2.6%
kinase still bound, per cent of control [7]: 96%
kinase still bound, per cent of control [8]: 81%
kinase still bound, per cent of control [9]: 59%
kinase still bound, per cent of control [10]: 31%
kinase still bound, per cent of control [11]: 94%
kinase still bound, per cent of control [12]: 47%
kinase still bound, per cent of control [13]: 1.2%
kinase still bound, per cent of control [14]: 81%
kinase still bound, per cent of control [15]: 92%
kinase still bound, per cent of control [16]: 69%
kinase still bound, per cent of control [17]: 67%
kinase still bound, per cent of control [18]: 41% and 47%
kinase still bound, per cent of control [19]: 18%
kinase still bound, per cent of control [20]: 89%
kinase still bound, per cent of control [21]: 49%
kinase still bound, per cent of control [22]: 97%
kinase still bound, per cent of control [23]: 100%
kinase still bound, per cent of control [24]: 86%
kinase still bound, per cent of control [25]: 56%
kinase still bound, per cent of control [26]: 40%
kinase still bound, per cent of control [27]: 35%
kinase still bound, per cent of control [28]: 31%
kinase still bound, per cent of control [29]: 100%
kinase still bound, per cent of control [30]: 47%
kinase still bound, per cent of control [31]: 96%
kinase still bound, per cent of control [32]: 1.4%
kinase still bound, per cent of control [33]: 78%
kinase still bound, per cent of control [34]: 66% and 84%
kinase still bound, per cent of control [35]: 0.3%
kinase still bound, per cent of control [36]: 62%
kinase still bound, per cent of control [37]: 84%
kinase still bound, per cent of control [38]: 36%
kinase still bound, per cent of control [39]: 52%
kinase still bound, per cent of control [40]: 79%
kinase still bound, per cent of control [41]: 74%

From the kinase profiling compilation of Christmann-Franck et al. (2016)
